Test results taken from ChEMBL document CHEMBL1933040, “The novel agent ophiobolin O induces apoptosis and cell cycle arrest of MCF-7 cells through activation of MAPK signaling pathways” (Bioorg Med Chem Lett, 2012).
pIC50: −log10 of the molar value. Activity calls are given as the source filed them. The calls are words filed in the database; no cut-off is given here.

Key:
[1] = target: T1, MAP kinase p38 (Homo sapiens) (UniProt O15264+Q15759+Q16539+P53778); assay: Activation of MAPK p38 phosphorylation in human MCF7 cells at 17.86 uM after 12 hrs by Western blot analysis; assay type: cell-based
[2] = test system: MCF7; assay: Effect on total JNK protein level in human MCF7 cells at 17.86 uM after 12 to 48 hrs by Western blot analysis; assay type: functional, cell-based
[3] = test system: MCF7; assay: Induction of apoptosis in human MCF7 cells assessed as change in Bcl-2 protein level at 17.86 uM after 12 hrs by Western blot analysis in presence of JNK inhibitor SP600125; assay type: functional, cell-based
[4] = test system: MCF7; assay: Induction of apoptosis in human MCF7 cells assessed as change in Bax/Bcl2 ratio at 17.86 uM by Western blot analysis; assay type: functional, cell-based; details: TDE = time-dependent effect
[5] = target: T2, Mitogen-activated protein kinase; ERK1/ERK2 (Homo sapiens) (UniProt P27361+P28482); assay: Activation of ERK1/2 phosphorylation in human MCF7 cells at 17.86 uM after 48 hrs by Western blot analysis in presence of ERK inhibitor U0126; assay type: cell-based
T2 sequence (P27361 whole entry, looked up): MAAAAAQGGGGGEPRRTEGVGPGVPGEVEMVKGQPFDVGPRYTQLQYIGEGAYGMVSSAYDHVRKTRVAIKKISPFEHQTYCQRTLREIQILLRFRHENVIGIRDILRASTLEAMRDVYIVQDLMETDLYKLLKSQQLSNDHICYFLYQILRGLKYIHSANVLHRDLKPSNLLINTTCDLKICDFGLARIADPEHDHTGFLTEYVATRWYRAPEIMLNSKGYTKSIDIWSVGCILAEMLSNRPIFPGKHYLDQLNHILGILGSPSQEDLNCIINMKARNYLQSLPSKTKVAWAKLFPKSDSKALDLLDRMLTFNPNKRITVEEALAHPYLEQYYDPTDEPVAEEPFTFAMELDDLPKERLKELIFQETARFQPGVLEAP
T2 sequence (P28482 whole entry, looked up): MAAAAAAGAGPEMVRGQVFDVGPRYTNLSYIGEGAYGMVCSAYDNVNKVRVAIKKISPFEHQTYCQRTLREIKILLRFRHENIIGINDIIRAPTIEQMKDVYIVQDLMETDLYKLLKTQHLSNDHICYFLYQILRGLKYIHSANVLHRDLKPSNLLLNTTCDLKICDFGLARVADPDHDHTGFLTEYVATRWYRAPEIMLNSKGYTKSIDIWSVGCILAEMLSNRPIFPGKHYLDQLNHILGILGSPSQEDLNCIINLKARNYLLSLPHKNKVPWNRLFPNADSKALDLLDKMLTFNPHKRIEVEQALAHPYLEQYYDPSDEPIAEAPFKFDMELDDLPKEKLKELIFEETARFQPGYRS

[6] = test system: MCF7; assay: Induction of apoptosis in human MCF7 cells assessed as increase of Bcl-2 phosphorylation at Ser70 at 17.86 uM after 12 hrs by Western blot analysis in presence of JNK inhibitor SP600125; assay type: functional, cell-based
[7] = test system: MCF7; assay: Effect on total MAPK p38 protein level in human MCF7 cells at 17.86 uM after 12 to 48 hrs by Western blot analysis; assay type: functional, cell-based
[8] = test system: MCF7; assay: Induction of apoptosis in human MCF7 cells assessed as change in Bax expression level at 17.86 uM after 12 to 48 hrs by Western blot analysis; assay type: functional, cell-based
[9] = test system: MCF7; assay: Induction of apoptosis in human MCF7 cells assessed as decrease in Bcl2 expression level at 17.86 uM after 12 to 48 hrs by Western blot analysis; assay type: functional, cell-based
[10] = Activation of JNK phosphorylation in human MCF7 cells at 17.86 uM after 24 hrs by Western blot analysis; assay type: cell-based
[11] = test system: MCF7; assay: Cell cycle arrest in human MCF7 cells assessed as accumulation at G0/G1 phase at 17.86 uM after 48 hrs by flow cytometry (reference value: 39.34 +/- 3.37%); assay type: functional
[12] = test system: MCF7; assay: Effect on total ERK 1/2 protein level in human MCF7 cells at 17.86 uM after 12 to 48 hrs by Western blot analysis; assay type: functional, cell-based
[13] = test system: MCF7; assay: Cell cycle arrest in human MCF7 cells assessed as accumulation at G0/G1 phase at 17.86 uM after 24 hrs by flow cytometry (reference value: 39.34 +/- 3.37%); assay type: functional
[14] = test system: MCF7; assay: Cell cycle arrest in human MCF7 cells assessed as accumulation at G0/G1 phase at 17.86 uM after 12 hrs by flow cytometry (reference value: 39.34 +/- 3.37%); assay type: functional
[15] = test system: MCF7; assay: Induction of apoptosis in human MCF7 cells assessed as increase in Bim expression level at 17.86 uM after 12 to 48 hrs by Western blot analysis; assay type: functional, cell-based
[16] = test system: MCF7; assay: Induction of apoptosis in human MCF7 cells at 17.86 uM after 48 hrs using Annexin V-FITC and propidium iodide staining by flow cytometry (reference value: 3.71 +/- 0.63%); assay type: functional
[17] = target: T2, Mitogen-activated protein kinase; ERK1/ERK2 (Homo sapiens); assay: Activation of ERK1/2 phosphorylation in human MCF7 cells at 17.86 uM after 24 hrs by Western blot analysis relative to control; assay type: cell-based
[18] = test system: MCF7; assay: Cytotoxicity against human MCF7 cells after 48 hrs by MTT assay; assay type: functional, cell-based
[19] = test system: HUVEC; assay: Cytotoxicity against human HUVEC cells after 48 hrs by MTT assay; assay type: cell-based
[20] = test system: MCF7; assay: Induction of apoptosis in human MCF7 cells at 17.86 uM after 48 hrs by using Annexin V-FITC and propidium iodide staining by flow cytometry in presence of JNK inhibitor SP600125; assay type: functional, cell-based
[21] = test system: MCF7; assay: Induction of apoptosis in human MCF7 cells at 17.86 uM using Annexin V-FITC and propidium iodide staining by flow cytometry; assay type: functional, cell-based; details: TDE = time-dependent effect
[22] = target: T1, MAP kinase p38 (Homo sapiens); assay: Activation of MAPK p38 phosphorylation in human MCF7 cells at 17.86 uM after 36 to 48 hrs by Western blot analysis; assay type: cell-based
[23] = test system: MCF7; assay: Cell cycle arrest in human MCF7 cells assessed as accumulation at G0/G1 phase at 17.86 uM by flow cytometry; assay type: functional, cell-based; details: TDE = time-dependent effect
[24] = target: T1, MAP kinase p38 (Homo sapiens); assay: Activation of MAPK p38 phosphorylation in human MCF7 cells at 17.86 uM after 48 hrs by Western blot analysis in presence of p38 inhibitor SB203580; assay type: cell-based

Compound: CO[C@H]1O[C@@]2(OC)C[C@@](C)(O)[C@H]3C[C@@]4(C)CC[C@H]([C@@H](C)/C=C\C=C(C)C)[C@@H]4C/C=C/1[C@H]32 [OPHIOBOLIN O]
- Activity [1]: Active
- Activity [2]: Active
- Activity [3]: Active
- Activity [4]: tde
- Activity [5]: inactive
- Activity [6]: Active
- Activity [7]: Active
- Activity [8]: inactive
- Activity [9]: Active
- Activity [10]: Active
- Activity [11]: 78.54%
- Activity [12]: Active
- Activity [13]: 60.1%
- Activity [14]: 44.79%
- Activity [15]: Active
- Activity [16]: 47.18%
- Activity [17]: Active
- Activity [18]: Dose-dependent effect
- pIC50 ([18]; MCF7, 48 h): 4.75
- Activity [19]: Non-toxic
- Activity [20]: inactive
- Activity [21]: tde
- Activity [22]: Active
- Activity [23]: tde
- Activity [24]: inactive
